Set-up: species or system female CD1 mice
Conditions: mouse, in vivo
Protocol: In accordance with the procedure outlined in Canc. Res. 47: 3707-3711, female CD1 mice (obtained from Charles River Laboratories) were inoculated intraperitoneally with 10^6 S 180 cells in 100 microliters of phosphate buffered saline (PBS). Controls received PBS only. Both tumor and control mice were divided into three groups of ten mice per group. Rosin and technical grade abietic acid were each dissolved in ethanol at a concentration of 200 mg/ml which was diluted with 10% newborn calf serum in PBS to a ratio of 1:20 to form respective suspensions. Untreated groups (both tumor and control mice) were inoculated intraperitoneally with 1 ml of vehicle alone while […] and the technical grade abietic acid treated groups (both tumor and control) were intraperitoneally inoculated with 1 ml (10 mg) of the technical grade abietic acid suspension, the doses being administered immediately, and thereafter on the third, sixth and ninth days. Data from animals which expired within two hours of any inoculation (at zero, three, six and nine days) were discarded. […]

## rosin
  adipose tissue deposition: increased deposition of adipose tissue
